As a reminder, the EC50 is the concentration giving half of the maximal effect. Usually IC50 stands for the point on the concentration scale where inhibition reaches its midpoint. A word on the AC50: it is the concentration at which the activity in the assay is half-maximal.

Molecules are shown by their SMILES. Activity calls are given as the source filed them.

For data set [1], the target named is T1, Endoribonuclease toxin MazF (Escherichia coli K-12, UniProt P0AE70).
T1 sequence (P0AE70 whole entry): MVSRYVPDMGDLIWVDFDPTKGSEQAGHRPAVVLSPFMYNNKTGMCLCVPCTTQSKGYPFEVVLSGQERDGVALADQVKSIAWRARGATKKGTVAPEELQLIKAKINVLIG
The experiment in a line: fluorescent RNA oligo signal without MazF, dose response, counter-screen for MazEF activator project, biochemical, fluorescence, single-stranded RNase substrate (AID 588502). The class given is functional.

The target in data set [2] is T1, Endoribonuclease toxin MazF. Put plainly: MazF toxin RNase activators, dose response, biochemical, fluorescence, single-stranded RNA substrate, uHTS hits (AID 588481). Format: functional.
The target of data set [3] is T2, RNA-editing ligase 1, mitochondrial (Trypanosoma brucei brucei, UniProt P86926).
T2 sequence (P86926 whole entry): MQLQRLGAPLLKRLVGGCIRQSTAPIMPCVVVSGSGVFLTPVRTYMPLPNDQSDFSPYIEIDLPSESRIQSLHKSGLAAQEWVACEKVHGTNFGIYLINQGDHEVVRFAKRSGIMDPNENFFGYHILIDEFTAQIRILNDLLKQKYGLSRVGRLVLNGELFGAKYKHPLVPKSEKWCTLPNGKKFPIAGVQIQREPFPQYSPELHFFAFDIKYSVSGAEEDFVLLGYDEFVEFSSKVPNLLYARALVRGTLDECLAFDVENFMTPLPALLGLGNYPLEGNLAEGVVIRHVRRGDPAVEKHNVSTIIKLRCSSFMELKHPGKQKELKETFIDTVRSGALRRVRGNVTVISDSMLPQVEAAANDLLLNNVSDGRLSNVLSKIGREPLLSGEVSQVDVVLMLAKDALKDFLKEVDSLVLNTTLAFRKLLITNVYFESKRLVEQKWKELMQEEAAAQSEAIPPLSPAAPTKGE
The experiment in a line: TbREL1 ligase inhibitors, dose response, biochemical, fluorescence, Trypanosoma brucei (AID 1117295). Format: functional.

For the next data set, the target named is T3, Aminopeptidase N (Plasmodium falciparum FcB1/Columbia, UniProt O96935).
T3 sequence (O96935 whole entry): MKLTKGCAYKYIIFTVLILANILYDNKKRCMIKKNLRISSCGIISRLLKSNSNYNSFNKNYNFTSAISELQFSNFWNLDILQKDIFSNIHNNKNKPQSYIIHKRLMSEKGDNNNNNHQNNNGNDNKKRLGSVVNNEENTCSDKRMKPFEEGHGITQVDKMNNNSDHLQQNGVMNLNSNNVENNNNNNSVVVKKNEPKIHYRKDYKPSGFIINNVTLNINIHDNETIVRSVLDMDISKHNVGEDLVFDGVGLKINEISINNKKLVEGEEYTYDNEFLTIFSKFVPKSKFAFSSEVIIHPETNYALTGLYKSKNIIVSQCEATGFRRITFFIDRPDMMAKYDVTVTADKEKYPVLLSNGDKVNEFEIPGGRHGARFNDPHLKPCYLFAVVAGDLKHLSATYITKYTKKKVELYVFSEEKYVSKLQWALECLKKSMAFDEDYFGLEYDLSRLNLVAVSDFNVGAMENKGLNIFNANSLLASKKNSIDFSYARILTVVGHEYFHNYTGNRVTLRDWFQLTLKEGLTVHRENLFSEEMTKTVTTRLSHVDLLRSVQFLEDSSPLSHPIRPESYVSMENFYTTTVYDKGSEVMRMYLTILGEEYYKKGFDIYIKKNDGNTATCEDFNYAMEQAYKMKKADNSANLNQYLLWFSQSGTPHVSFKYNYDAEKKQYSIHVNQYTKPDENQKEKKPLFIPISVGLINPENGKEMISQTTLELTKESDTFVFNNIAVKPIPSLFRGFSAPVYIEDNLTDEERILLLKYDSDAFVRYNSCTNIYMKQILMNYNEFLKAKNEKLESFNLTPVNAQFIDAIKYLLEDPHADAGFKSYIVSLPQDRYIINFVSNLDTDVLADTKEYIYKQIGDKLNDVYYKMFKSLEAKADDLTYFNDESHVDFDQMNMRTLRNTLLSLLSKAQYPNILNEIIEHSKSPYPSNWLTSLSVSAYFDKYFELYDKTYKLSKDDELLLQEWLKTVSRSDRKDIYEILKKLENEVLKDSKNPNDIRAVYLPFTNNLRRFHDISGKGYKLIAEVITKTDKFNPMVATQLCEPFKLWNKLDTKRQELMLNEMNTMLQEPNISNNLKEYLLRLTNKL
Put plainly: P. falciparum M1AAP inhibitors, biochemical, fluorogenic H-Leu-NHMec substrate, 1536-well (AID 1445). Details: species or system Plasmodium falciparum 3D7, 3D7.

In data set [4] the target is Dual specificity tyrosine-phosphorylation-regulated kinase 1A (Rattus norvegicus, UniProt Q63470). Format: biochemical, Homo sapiens.
Data set [5] concerns the target T4, RNA-binding protein pos-1 (Caenorhabditis elegans, UniProt G5EF15).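 Further: purified POS-1 fused to maltose binding protein made in E. coli; potency of compounds blocking POS-1 binding to fluorescent RNA.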
T4 sequence (G5EF15 whole entry): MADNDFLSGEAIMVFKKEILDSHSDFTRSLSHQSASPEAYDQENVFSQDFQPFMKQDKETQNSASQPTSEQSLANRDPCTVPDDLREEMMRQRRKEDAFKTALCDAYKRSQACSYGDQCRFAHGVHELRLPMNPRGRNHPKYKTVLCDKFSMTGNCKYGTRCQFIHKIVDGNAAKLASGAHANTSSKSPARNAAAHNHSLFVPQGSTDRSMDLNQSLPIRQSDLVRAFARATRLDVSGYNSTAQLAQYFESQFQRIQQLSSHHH
Put plainly: inhibitors of POS-1/mex-3 RNA binding, dose response, biochemical, fluorescence polarization (AID 1964). (Polarisation of emitted light reports the rotation of a fluorescent probe.)

The target in a further data set is T5, Caspase-6 (Homo sapiens, UniProt P55212).
T5 sequence (P55212 whole entry): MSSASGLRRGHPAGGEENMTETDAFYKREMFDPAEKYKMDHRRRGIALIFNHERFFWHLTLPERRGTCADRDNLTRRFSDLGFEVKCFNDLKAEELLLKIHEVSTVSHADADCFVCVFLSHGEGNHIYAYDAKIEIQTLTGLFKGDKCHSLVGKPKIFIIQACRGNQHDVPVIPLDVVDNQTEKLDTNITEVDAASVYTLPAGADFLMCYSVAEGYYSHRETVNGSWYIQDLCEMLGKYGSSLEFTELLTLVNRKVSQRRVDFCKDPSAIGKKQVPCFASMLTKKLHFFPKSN
Put plainly: human caspase-6 inhibitors, dose response, biochemical, VEID-R110 fluorescence, cherry-pick (AID 720632).

The target of data set [6] is FAD-linked sulfhydryl oxidase ALR (Homo sapiens, UniProt P55789). The experiment in a line: inhibitors of human ALR sulfhydryl oxidase, dose response, biochemical, H2O2 detection, luminescence, cherry-pick (AID 493248).
Data set [7] has as its target T6, Zinc finger protein mex-5 (Caenorhabditis elegans, UniProt Q9XUB2).
T6 sequence (Q9XUB2 whole entry): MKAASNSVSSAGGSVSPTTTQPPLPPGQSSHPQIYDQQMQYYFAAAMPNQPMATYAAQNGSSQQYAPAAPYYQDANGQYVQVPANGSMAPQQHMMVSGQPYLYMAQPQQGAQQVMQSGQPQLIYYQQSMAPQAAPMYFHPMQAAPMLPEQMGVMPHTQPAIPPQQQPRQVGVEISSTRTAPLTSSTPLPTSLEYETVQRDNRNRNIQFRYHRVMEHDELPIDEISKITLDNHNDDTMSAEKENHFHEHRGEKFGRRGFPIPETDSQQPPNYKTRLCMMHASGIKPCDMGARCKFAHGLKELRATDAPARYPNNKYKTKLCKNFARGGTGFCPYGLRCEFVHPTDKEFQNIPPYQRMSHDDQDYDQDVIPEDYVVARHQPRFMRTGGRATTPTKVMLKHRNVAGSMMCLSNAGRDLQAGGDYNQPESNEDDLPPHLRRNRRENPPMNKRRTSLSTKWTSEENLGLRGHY
The experiment in a line: MEX-5/TCR-2 RNA interaction inhibitors, dose response, biochemical, C. elegans, fluorescence polarization (AID 1960).

The target of a further data set is T7, Cytochrome P450 1A2 (Homo sapiens, UniProt P05177).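 Further: PubChem cytochrome P450 panel assay, CYP1A2 panel member.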
T7 sequence (P05177 whole entry): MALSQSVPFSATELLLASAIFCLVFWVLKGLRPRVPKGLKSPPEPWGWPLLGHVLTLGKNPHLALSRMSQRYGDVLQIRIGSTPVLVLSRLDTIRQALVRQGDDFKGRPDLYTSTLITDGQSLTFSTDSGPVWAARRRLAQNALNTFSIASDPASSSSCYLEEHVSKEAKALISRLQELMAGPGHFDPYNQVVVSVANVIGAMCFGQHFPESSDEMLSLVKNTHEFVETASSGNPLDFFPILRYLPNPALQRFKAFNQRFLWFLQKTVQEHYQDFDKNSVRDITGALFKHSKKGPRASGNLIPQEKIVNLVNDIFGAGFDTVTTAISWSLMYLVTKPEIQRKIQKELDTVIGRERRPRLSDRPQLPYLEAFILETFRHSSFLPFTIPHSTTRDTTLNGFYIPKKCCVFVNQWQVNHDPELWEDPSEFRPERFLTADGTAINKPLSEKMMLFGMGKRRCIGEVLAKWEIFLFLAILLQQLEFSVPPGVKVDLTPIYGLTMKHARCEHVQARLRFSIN

Data set [8] has as its target Arf-GAP with SH3 domain, ANK repeat and PH domain-containing protein 1 (Homo sapiens, UniProt Q9ULH1). The class given is functional.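 Further: biochemical fluorescence polarization dose–response screen measuring inhibition of ASAP1; ASAP1 GAP domain stimulating GTP hydrolysis by truncated human ARF1.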
The target in data set [9] is T8, Type-1 angiotensin II receptor (Homo sapiens, UniProt P30556).
T8 sequence (P30556 whole entry): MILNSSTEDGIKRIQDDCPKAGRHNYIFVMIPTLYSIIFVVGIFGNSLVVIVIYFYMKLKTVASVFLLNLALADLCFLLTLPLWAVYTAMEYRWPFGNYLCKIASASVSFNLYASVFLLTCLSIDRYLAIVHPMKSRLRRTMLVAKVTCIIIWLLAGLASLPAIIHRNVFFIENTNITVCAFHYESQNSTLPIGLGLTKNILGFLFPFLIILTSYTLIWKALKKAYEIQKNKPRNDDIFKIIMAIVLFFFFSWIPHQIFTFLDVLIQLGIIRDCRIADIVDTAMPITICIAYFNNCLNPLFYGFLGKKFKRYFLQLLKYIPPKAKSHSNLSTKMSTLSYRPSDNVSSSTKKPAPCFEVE
Put plainly: AT1 receptor antagonists, dose response, selectivity assay for APJ receptor antagonist project, cell-based, uHTS hits (AID 463214).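 Further: antagonist potency against angiotensin II stimulated AT1 response.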 The class given is functional.

In a further data set the target is Beta-galactosidase (Escherichia coli, UniProt Q8VNN2). The experiment in a line: PubChem AID 485352. The class given is functional.
The target in another data set is Cytochrome P450 2C19 (Homo sapiens, UniProt P33261). Put plainly: Cytochrome panel assay with activity outcomes. Panel member name: p450-cyp2c19 Compounds with AC50 equal or less than 10 uM are considered active. The class given is functional. The settings on record: read-out: AC50.
Another data set concerns the target Cytochrome P450 2C9 (Homo sapiens, UniProt P11712).

Sequence of Arf-GAP with SH3 domain, ANK repeat and PH domain-containing protein 1 (Q9ULH1 whole entry, the tested form may be a part): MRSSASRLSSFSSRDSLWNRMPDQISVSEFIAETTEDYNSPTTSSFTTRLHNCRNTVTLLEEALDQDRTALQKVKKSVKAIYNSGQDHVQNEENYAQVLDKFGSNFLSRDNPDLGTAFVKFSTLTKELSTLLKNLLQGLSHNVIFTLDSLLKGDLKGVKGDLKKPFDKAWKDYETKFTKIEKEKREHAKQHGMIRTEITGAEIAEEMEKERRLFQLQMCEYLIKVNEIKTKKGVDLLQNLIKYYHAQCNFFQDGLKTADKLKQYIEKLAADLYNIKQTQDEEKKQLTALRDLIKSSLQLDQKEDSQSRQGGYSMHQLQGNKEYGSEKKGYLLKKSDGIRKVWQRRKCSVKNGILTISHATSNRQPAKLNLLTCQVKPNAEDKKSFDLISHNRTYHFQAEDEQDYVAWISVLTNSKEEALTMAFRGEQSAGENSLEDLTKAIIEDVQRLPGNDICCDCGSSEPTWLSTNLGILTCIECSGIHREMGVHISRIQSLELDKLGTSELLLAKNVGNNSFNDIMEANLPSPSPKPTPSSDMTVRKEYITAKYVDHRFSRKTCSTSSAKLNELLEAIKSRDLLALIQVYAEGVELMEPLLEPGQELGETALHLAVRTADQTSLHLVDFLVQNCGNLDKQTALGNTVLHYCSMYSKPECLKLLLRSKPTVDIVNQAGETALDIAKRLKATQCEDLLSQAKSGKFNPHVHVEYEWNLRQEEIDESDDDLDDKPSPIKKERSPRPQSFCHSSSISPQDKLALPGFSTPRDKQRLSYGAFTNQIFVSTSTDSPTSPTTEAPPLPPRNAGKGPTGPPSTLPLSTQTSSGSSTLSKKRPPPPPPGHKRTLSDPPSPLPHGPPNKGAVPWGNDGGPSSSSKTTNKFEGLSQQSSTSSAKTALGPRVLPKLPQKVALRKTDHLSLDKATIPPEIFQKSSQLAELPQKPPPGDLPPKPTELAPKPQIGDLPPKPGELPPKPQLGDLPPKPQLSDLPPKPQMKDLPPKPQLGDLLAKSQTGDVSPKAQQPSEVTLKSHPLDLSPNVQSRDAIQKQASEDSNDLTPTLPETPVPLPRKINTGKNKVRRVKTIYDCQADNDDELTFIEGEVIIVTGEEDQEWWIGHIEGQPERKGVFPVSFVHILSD
Sequence of FAD-linked sulfhydryl oxidase ALR (P55789 whole entry): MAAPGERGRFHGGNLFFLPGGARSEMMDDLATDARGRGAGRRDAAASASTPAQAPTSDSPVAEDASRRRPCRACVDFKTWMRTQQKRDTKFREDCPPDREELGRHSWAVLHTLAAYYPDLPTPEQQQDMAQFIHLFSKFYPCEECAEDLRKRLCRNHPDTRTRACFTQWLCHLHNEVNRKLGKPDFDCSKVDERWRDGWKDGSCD
Sequence of Beta-galactosidase (Q8VNN2 whole entry): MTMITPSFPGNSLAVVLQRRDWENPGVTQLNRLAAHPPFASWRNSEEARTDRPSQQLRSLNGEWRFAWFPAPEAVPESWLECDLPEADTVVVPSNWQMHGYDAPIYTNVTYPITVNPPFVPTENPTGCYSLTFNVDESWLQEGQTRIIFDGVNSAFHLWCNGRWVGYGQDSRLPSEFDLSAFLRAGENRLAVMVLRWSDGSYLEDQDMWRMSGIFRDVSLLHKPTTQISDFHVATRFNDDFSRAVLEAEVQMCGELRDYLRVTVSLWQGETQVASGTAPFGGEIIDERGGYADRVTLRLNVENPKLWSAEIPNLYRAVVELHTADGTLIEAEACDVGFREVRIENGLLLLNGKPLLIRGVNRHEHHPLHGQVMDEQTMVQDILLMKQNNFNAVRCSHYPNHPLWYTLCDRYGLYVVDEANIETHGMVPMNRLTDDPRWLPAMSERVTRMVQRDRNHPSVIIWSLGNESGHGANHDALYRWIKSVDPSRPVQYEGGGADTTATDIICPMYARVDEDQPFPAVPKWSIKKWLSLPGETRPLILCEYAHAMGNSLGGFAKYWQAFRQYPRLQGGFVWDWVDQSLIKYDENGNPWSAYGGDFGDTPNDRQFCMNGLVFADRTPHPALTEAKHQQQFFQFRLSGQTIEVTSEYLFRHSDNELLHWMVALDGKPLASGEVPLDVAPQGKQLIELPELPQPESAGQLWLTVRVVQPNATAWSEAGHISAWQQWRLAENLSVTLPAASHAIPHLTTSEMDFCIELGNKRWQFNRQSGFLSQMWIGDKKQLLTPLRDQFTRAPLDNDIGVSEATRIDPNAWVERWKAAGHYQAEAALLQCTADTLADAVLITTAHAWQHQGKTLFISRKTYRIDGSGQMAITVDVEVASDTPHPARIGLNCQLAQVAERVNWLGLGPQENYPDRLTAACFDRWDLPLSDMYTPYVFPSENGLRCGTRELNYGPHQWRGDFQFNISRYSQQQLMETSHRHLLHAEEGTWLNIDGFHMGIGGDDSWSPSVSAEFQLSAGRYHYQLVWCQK
Sequence of Cytochrome P450 2C9 (P11712 whole entry): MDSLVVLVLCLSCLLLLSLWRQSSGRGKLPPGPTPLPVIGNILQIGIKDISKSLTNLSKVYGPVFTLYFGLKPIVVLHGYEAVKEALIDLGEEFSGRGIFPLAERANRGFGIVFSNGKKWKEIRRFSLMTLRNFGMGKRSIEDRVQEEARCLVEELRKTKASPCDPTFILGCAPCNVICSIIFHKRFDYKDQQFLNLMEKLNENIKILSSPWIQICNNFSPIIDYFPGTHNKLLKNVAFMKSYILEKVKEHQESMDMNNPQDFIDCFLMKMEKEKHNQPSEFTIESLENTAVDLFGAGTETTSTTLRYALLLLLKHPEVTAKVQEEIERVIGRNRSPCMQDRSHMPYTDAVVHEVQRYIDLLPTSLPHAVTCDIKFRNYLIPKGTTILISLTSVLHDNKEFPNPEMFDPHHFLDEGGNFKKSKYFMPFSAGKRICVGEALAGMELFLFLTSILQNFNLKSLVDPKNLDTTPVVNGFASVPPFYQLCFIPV
Sequence of Cytochrome P450 2C19 (P33261 whole entry): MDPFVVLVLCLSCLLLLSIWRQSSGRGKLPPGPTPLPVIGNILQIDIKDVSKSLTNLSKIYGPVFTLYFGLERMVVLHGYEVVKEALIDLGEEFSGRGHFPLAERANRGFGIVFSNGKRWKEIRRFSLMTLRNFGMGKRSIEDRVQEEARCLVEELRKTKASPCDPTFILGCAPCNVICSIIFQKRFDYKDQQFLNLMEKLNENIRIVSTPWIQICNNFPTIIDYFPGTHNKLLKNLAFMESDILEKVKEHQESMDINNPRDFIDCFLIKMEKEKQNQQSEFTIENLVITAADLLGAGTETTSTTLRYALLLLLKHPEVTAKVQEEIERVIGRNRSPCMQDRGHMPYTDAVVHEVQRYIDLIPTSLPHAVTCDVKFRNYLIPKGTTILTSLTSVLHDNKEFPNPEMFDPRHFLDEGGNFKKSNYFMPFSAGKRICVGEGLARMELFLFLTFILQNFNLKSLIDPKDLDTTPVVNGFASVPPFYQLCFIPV

Consider `O=[N+]([O-])c1ccc(C=CC=Cc2ccccc2)cc1`, for which the EC50 in data set [1] and in data set [2] was > 99 µM (inactive) in each case.

In the case of `COc1c(O)cc2oc(-c3ccc(O)c(O)c3)cc(=O)c2c1O` [EUPAFOLIN], the values for the IC50 (in data set [3]; on Aminopeptidase N) were > 96.6 µM (inactive) and 15.6 µM (active), respectively. The AC50 in data set [4] was 12.7 µM (active); at Caspase-6, 29.3 µM (active); in [6], 0.23 µM (active). The figures for the EC50 in data set [5] and in data set [7] were 93.1 µM (active) and 36 µM (active), respectively.

In the case of `Cc1ccc(NC(=O)c2ccc(NCC3CCCO3)c([N+](=O)[O-])c2)cc1Cl` (centres undefined), on Cytochrome P450 1A2, the AC50 is 14.1 µM (inconclusive). Besides, the IC50 in [8] was 5.2 µM (active). Moreover, the EC50 in data set [1] and in data set [2] was > 99 µM (inactive) throughout.

On to `CCOC(=O)C1=C2NC(=O)c3ccccc3N2C(=O)C1`, for which the EC50 in [5] is 89 µM (active); on Beta-galactosidase, > 40 µM (inactive); in data set [7] it was 38.8 µM (active). The IC50 in data set [9] is 9.25 µM (active).

Take `NC1=NC(=O)/C(=C/c2cccs2)S1`: the AC50 at Cytochrome P450 2C19 is 25.1 µM (inconclusive); on Cytochrome P450 2C9, “inconclusive”; in data set [4], 1.21 µM (active).

For the molecule `O=c1oc2ccc3ccccc3c2cc1-c1nc2ccccc2o1`, the EC50 is > 99 µM (inactive) in data set [1], > 300 µM (not active) in data set [5], > 99 µM (inactive) in [2] and > 300 µM (inconclusive) in [7].
